Results: US3957764A, “6-Aminopenicillanic acid derivatives” (priority 1969, dated 1976)
In brackets after ≈: the same amount, converted by molar mass. Like-named read-outs stand apart in the source and are kept apart here.

Assays:
[1] = tested on: Escherichia coli HA2 Leo strain; experiment: Antibacterial activity (Tables A and B), 50% inhibition; format: cell-based; settings: HA2LEOSTRAIN, Table A
Excerpt: (§1) This effect is quite unexpected, since of the hitherto known derivatives of 6-aminopenicillanic acid only those being substituted with an acyl group at the 6-amino group have shown an antibacterial effect. The effect on penicillin-sensitive, gram-positive bacteria is less than that of benzylpenicillin and of α-aminobenzylpenicillin, whereas the effect on gram-negative bacilli, e.g. coli and salmonella species, is on a many times higher level than that of e.g. benzylpenicillin and α-aminobenzylpenicillin. […] IC50 means the concentration required for 50% inhibition.
In Table B below the activity of a number of the compounds of the invention against the Escherichia coli HA2 Leo strain of Table A is shown:
The compounds of Table B were obtained by enzymatic hydrolysis of the corresponding esters described in the Examples mentioned by treatment with a 20 per cent mouse serum at 37°C in 90 minutes.

Escherichia Coli HA2 = experiment: In vivo experiment: survival of mice infected with Escherichia Coli HA2 (Table C); settings: 10 mice
Method: The great difference between the spectrum of the hereinbefore mentioned FL 1060 and those of G-penicillin and ampicillin indicates a difference in the mode of action. This is also supported by in vivo experiments, in which mice (weight 27 to 30 g) were infected with 0.5 ml of a 24 hour old NIH bouillon culture of Escherichia Coli HA2 1000 times diluted in gastric mucin (5%) (Orthana). After half an hour and again after 61/2 hours a single dose was given subcutaneously in 0.5 ml. of a 0.9 per cent sodium chloride solution. After 24 hours the numbers of surviving mice were registered.
All surviving mice were still alive after 4 days, when observation of them was terminated.

Shigella flexneri = experiment: Antibacterial spectrum (Table A), 50% inhibition; format: cell-based
Excerpt: as §1

[2] = tested on: Salmonella abortivoequina; experiment: Antibacterial spectrum (Table A), 50% inhibition; format: cell-based
Excerpt: as §1

[3] = tested on: Staph. aureus, penicillinase producing; experiment: Antibacterial spectrum (Table A), 50% inhibition; format: cell-based; settings: Staphylococcus aureus
Excerpt: as §1

[4] = tested on: Salmonella schottmuelleri; experiment: Antibacterial spectrum (Table A), 50% inhibition; format: cell-based
Excerpt: as §1

Bacillus subtilis KA2 = experiment: Antibacterial spectrum (Table A), 50% inhibition; format: cell-based
Excerpt: as §1

Salmonella typhosa = experiment: Antibacterial spectrum (Table A), 50% inhibition; format: cell-based; settings: Salmonella enterica
Excerpt: as §1

[5] = tested on: Listeria Monocytogenes FT; experiment: Antibacterial spectrum (Table A), 50% inhibition; format: cell-based
Excerpt: as §1

Streptococcus pyogenes = experiment: Antibacterial spectrum (Table A), 50% inhibition; format: cell-based
Excerpt: as §1

Shigella dysenteriae = experiment: Antibacterial spectrum (Table A), 50% inhibition; format: cell-based
Excerpt: as §1

Pseudomonas aeruginosa = experiment: Antibacterial spectrum (Table A), 50% inhibition; format: cell-based
Excerpt: as §1

[6] = tested on: Erysipelothrix insidiosa FU; experiment: Antibacterial spectrum (Table A), 50% inhibition; format: cell-based; settings: Erysipelothrix rhusiopathiae
Excerpt: as §1

[7] = tested on: Staph. aureus, penicillin sensitive; experiment: Antibacterial spectrum (Table A), 50% inhibition; format: cell-based; settings: Staphylococcus aureus
Excerpt: as §1

[8] = tested on: Diplococcus pneumoniae EA; experiment: Antibacterial spectrum (Table A), 50% inhibition; format: cell-based; settings: Streptococcus pneumoniae
Excerpt: as §1

Alcaligenes faecalis = experiment: Antibacterial spectrum (Table A), 50% inhibition; format: cell-based
Excerpt: as §1

Salmonella chlerasuis = experiment: Antibacterial spectrum (Table A), 50% inhibition; format: cell-based
Excerpt: as §1

Salmonella paratyphi A = experiment: Antibacterial spectrum (Table A), 50% inhibition; format: cell-based; settings: Salmonella enterica
Excerpt: as §1

Salmonella enteritidis = experiment: Antibacterial spectrum (Table A), 50% inhibition; format: cell-based; settings: Salmonella enterica
Excerpt: as §1

Salmonella typhimurium = experiment: Antibacterial spectrum (Table A), 50% inhibition; format: cell-based; settings: Salmonella enterica
Excerpt: as §1

Salmonella hirschfeldii = experiment: Antibacterial spectrum (Table A), 50% inhibition; format: cell-based
Excerpt: as §1

[9] = tested on: Streptococcus faecalis E13; experiment: Antibacterial spectrum (Table A), 50% inhibition; format: cell-based; settings: Enterococcus faecalis
Excerpt: as §1

[10] = tested on: Proteus, average of 8 strains; experiment: Antibacterial spectrum (Table A), 50% inhibition; format: cell-based
Excerpt: as §1

[11] = tested on: Klebsiella pneumoniae, average of 12 strains; experiment: Antibacterial spectrum (Table A), 50% inhibition; format: cell-based
Excerpt: as §1

[12] = tested on: Escherichia coli, average of 36 strains; experiment: Antibacterial spectrum (Table A), 50% inhibition; format: cell-based
Excerpt: as §1

Vibrio comma = experiment: Antibacterial spectrum (Table A), 50% inhibition; format: cell-based; settings: Vibrio cholerae
Excerpt: as §1

Solubility in water = format: physicochemical
Bacillus megatherium KD = experiment: Antibacterial spectrum (Table A), 50% inhibition; format: cell-based
Excerpt: as §1

[13] = tested on: Corynebacterium xerosis FF; experiment: Antibacterial spectrum (Table A), 50% inhibition; format: cell-based
Excerpt: as §1

[14] = Salmonella abortivoequina, read-out: IC50
[15] = Listeria Monocytogenes FT, read-out: IC50
[16] = Diplococcus pneumoniae EA, read-out: IC50
[17] = Salmonella chlerasuis, read-out: IC50
[18] = Salmonella enteritidis, read-out: IC50
[19] = Salmonella typhimurium, read-out: IC50
[20] = Streptococcus faecalis E13, read-out: IC50
[21] = Proteus, average of 8 strains, read-out: IC50
[22] = average of 12 strains, read-out: IC50

SMILES	IC50 [1] [µg/mL]	IC50 (Shigella flexneri) [µg/mL]	IC50 [2, 14] [µg/mL]	IC50 [3] [µg/mL]	IC50 [4] [µg/mL]	IC50 (Bacillus subtilis KA2; read-out: IC50) [µg/mL]	IC50 (Salmonella typhosa) [µg/mL]	IC50 [5, 15] [µg/mL]	IC50 (Streptococcus pyogenes; read-out: IC50) [µg/mL]	IC50 (Shigella dysenteriae) [µg/mL]	IC50 (Pseudomonas aeruginosa; read-out: IC50) [µg/mL]	IC50 [6] [µg/mL]	IC50 [7] [µg/mL]	IC50 [8, 16] [µg/mL]	IC50 (Alcaligenes faecalis) [µg/mL]	IC50 (Salmonella chlerasuis; [17]) [µg/mL]	IC50 (Salmonella paratyphi A) [µg/mL]	IC50 (Salmonella hirschfeldii) [µg/mL]	IC50 [12] [µg/mL]	IC50 (Vibrio comma) [µg/mL]	other results
CC1(C)S[C@@H]2[C@H](NC(=O)[C@H](N)c3ccccc3)C(=O)N2[C@H]1C(=O)O [Ampicillin, α-aminobenzylpenicillin]	2 (≈ 5.72 µM)	0.79 (≈ 2.26 µM)	0.25 (≈ 0.715 µM)	130 (≈ 372 µM)	0.63 (≈ 1.8 µM)	0.025 (≈ 0.0715 µM)	0.32 (≈ 0.916 µM)	0.1 (≈ 0.286 µM)	0.013 (≈ 0.0372 µM)	0.63 (≈ 1.8 µM)	> 100	0.04 (≈ 0.114 µM)	0.025 (≈ 0.0715 µM)	0.01 (≈ 0.0286 µM)	0.5 (≈ 1.43 µM)	0.32 (≈ 0.916 µM)	0.4 (≈ 1.14 µM)	0.079 (≈ 0.226 µM)	2.2 (≈ 6.3 µM)	0.4 (≈ 1.14 µM)	per cent surviving (Escherichia Coli HA2; single dose 75 μg s.c., given twice, 24 hours): 0 per cent; per cent surviving (Escherichia Coli HA2; single dose 150 μg s.c., given twice, 24 hours): 0 per cent; per cent surviving (Escherichia Coli HA2; single dose 300 μg s.c., given twice, 24 hours (survivors alive after 4 days)): 70 per cent; IC50 (Salmonella enteritidis; [18]): 0.4 µg/mL (≈ 1.14 µM); IC50 (Salmonella typhimurium; [19]): 0.5 µg/mL (≈ 1.43 µM); IC50 [9, 20]: 0.79 µg/mL (≈ 2.26 µM); IC50 [10, 21]: 1.3 µg/mL (≈ 3.72 µM); IC50 [11, 22]: 26 µg/mL (≈ 74.4 µM)
CC1(C)S[C@@H]2[C@H](N=CN3CCCCCC3)C(=O)N2[C@H]1C(=O)O [Example 6, 6-[(Hexahydro-1H-azepin-1-yl)-methyleneamino]-penicillanic acid]	–	–	–	–	–	–	–	–	–	–	–	–	–	–	–	–	–	–	–	–	solubility (Solubility in water): soluble in water
CC1(C)S[C@@H]2[C@H](/N=C/N3CCCCCC3)C(=O)N2[C@H]1C(=O)O [FL 1060, 6-[(hexahydro-1H-azepin-1-yl)-methyleneamino]-penicillanic acid, hydrochloric, dihydrate]	0.016	0.05	0.04	> 100	0.063	5	0.079	50	0.5	0.16	> 100	20	5	3.2	0.63	0.16	0.13	0.016	0.089	0.4	per cent surviving (Escherichia Coli HA2; single dose 7.5 μg s.c., given twice, 24 hours): 0 per cent; per cent surviving (Escherichia Coli HA2; single dose 15 μg s.c., given twice, 24 hours): 0 per cent; per cent surviving (Escherichia Coli HA2; single dose 30 μg s.c., after half an hour and again after 6 1/2 hours, 24 hours (survivors alive after 4 days)): 50 per cent; IC50 (Bacillus megatherium KD; Bacillus megatherium KD, read-out: IC50): 0.5 µg/mL; IC50 ([13]; Corynebacterium xerosis FF, read-out: IC50): 1.6 µg/mL; IC50 (Salmonella enteritidis; [18]): 0.16 µg/mL; IC50 (Salmonella typhimurium; [19]): 0.063 µg/mL; IC50 [9, 20]: > 100 µg/mL; IC50 [10, 21]: 0.23 µg/mL; IC50 [11, 22]: 0.65 µg/mL
CC1(C)S[C@@H]2[C@H](NC(=O)Cc3ccccc3)C(=O)N2[C@H]1C(=O)O [G-Pen., benzylpenicillin]	32 (≈ 95.7 µM)	10 (≈ 29.9 µM)	–	100 (≈ 299 µM)	3.2 (≈ 9.57 µM)	–	2 (≈ 5.98 µM)	–	–	5 (≈ 15 µM)	–	0.025 (≈ 0.0748 µM)	0.016 (≈ 0.0478 µM)	–	1.6 (≈ 4.78 µM)	–	3.2 (≈ 9.57 µM)	0.13 (≈ 0.389 µM)	32 (≈ 95.7 µM)	0.79 (≈ 2.36 µM)	IC50 ([2]; Salmonella): 2.5 µg/mL (≈ 7.48 µM); IC50 (Bacillus subtilis KA2): 0.01 µg/mL (≈ 0.0299 µM); IC50 ([5]; Listeria monocytogenes): 0.1 µg/mL (≈ 0.299 µM); IC50 (Streptococcus pyogenes): 0.008 µg/mL (≈ 0.0239 µM); IC50 (Bacillus megatherium KD; Bacillus): 0.016 µg/mL (≈ 0.0478 µM); IC50 (Pseudomonas aeruginosa): > 100 µg/mL; IC50 ([13]; Corynebacterium xerosis): 0.013 µg/mL (≈ 0.0389 µM); IC50 [8]: 0.01 µg/mL (≈ 0.0299 µM); IC50 (Salmonella chlerasuis; Salmonella): 1.6 µg/mL (≈ 4.78 µM); IC50 (Salmonella enteritidis; ENTERITIDIS): 2.5 µg/mL (≈ 7.48 µM); IC50 (Salmonella typhimurium; TYPHIMURIUM): 2.5 µg/mL (≈ 7.48 µM); IC50 ([9]; E13): 3.2 µg/mL (≈ 9.57 µM); IC50 [10]: 5.4 µg/mL (≈ 16.1 µM); IC50 [11]: 29 µg/mL (≈ 86.7 µM)
